The test system of assay [1] is HepG2. Put plainly: cells. The following applies: Homo sapiens, HepG2, 72 h.
Description: Cytotoxicity against human HepG2 cells after 72 hrs by MTT assay
In assay [2] the target is Platelet-derived growth factor receptor alpha (Homo sapiens) (UniProt P16234). The assay is described as follows: Inhibition of PDGFR-alpha at 50 uM after 1 hrs by luminescence assay.
Assay [3] addresses Platelet-derived growth factor receptor beta (Homo sapiens) (UniProt P09619). The assay is described as follows: Inhibition of PDGFR-beta at 50 uM after 1 hrs by luminescence assay.
Assay [4] deals with Vascular endothelial growth factor receptor 1 (Homo sapiens) (UniProt P17948). The assay is described as follows: Inhibition of VEGFR-1 at 50 uM after 1 hrs by luminescence assay.
The target in assay [5] is Vascular endothelial growth factor receptor 2 (Homo sapiens) (UniProt P35968). Put plainly: Inhibition of VEGFR-2 at 50 uM after 1 hrs by luminescence assay.
In assay [6] the target is Phosphatidylinositol 4,5-bisphosphate 3-kinase catalytic subunit alpha isoform (Homo sapiens) (UniProt P42336). Put plainly: Inhibition of PI3K-alpha at 50 uM after 1 hrs by luminescence assay.
For assay [7], the target named is Platelet-derived growth factor receptor alpha (Homo sapiens) (UniProt P16234). Put plainly: Inhibition of PDGFR-alpha at 20 uM after 1 hrs by luminescence assay.
For assay [8], the target named is Platelet-derived growth factor receptor beta (Homo sapiens) (UniProt P09619). The assay is described as follows: Inhibition of PDGFR-beta at 20 uM after 1 hrs by luminescence assay.
Assay [9] has as its target Vascular endothelial growth factor receptor 2 (Homo sapiens) (UniProt P35968). The assay is described as follows: Inhibition of VEGFR-2 at 20 uM after 1 hrs by luminescence assay.
For assay [10], the target named is Epidermal growth factor receptor (Homo sapiens, UniProt P00533). The assay is described as follows: Inhibition of EGFR after 1 hrs by luminescence assay.
Assay [11] has as its system HepG2. The assay is described as follows: Induction of apoptosis in human HepG2 cells assessed as early apoptotic cells at 2 uM after 72 hrs using annexin V-propidium iodide staining based flow cytometric analysis. Type of assay: functional.
The subject of assay [12] is HepG2. The assay is described as follows: Induction of apoptosis in human HepG2 cells assessed as late apoptotic or dead cells at 2 uM after 72 hrs using annexin V-propidium iodide staining based flow cytometric analysis. In kind it is functional. In general terms: In flow cytometry, cells or beads pass a laser one at a time.

Active and inactive are the calls of the source. No cut-off for these calls is given here.

Platelet-derived growth factor receptor beta (Homo sapiens), sequence (P09619 whole entry): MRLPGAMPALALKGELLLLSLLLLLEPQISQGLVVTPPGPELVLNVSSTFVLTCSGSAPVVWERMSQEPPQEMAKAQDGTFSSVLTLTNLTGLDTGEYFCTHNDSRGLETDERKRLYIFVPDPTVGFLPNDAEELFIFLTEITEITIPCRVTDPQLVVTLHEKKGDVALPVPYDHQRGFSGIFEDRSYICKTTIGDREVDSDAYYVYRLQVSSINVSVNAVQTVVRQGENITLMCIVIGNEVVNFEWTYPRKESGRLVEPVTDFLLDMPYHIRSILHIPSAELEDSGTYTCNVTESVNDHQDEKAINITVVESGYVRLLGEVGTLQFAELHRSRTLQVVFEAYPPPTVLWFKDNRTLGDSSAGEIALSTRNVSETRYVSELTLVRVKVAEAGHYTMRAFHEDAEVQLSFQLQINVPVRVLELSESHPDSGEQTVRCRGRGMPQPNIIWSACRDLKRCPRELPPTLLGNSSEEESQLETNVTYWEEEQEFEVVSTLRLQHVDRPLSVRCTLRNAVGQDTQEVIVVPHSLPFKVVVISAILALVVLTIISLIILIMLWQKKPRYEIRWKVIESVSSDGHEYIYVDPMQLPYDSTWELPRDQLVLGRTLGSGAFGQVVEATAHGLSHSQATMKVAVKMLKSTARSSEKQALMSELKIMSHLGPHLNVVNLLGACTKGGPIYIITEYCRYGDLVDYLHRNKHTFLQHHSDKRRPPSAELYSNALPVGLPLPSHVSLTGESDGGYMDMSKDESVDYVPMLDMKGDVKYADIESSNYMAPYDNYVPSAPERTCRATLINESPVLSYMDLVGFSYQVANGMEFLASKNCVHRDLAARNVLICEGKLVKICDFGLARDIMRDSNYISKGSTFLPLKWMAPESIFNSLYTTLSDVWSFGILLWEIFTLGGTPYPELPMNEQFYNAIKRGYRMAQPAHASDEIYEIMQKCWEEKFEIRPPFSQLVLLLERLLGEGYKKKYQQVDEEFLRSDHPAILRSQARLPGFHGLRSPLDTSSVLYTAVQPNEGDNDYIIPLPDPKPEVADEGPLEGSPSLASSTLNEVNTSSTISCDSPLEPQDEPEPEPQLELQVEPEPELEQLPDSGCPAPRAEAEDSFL
Vascular endothelial growth factor receptor 2 (Homo sapiens), sequence (P35968 whole entry, canonical isoform): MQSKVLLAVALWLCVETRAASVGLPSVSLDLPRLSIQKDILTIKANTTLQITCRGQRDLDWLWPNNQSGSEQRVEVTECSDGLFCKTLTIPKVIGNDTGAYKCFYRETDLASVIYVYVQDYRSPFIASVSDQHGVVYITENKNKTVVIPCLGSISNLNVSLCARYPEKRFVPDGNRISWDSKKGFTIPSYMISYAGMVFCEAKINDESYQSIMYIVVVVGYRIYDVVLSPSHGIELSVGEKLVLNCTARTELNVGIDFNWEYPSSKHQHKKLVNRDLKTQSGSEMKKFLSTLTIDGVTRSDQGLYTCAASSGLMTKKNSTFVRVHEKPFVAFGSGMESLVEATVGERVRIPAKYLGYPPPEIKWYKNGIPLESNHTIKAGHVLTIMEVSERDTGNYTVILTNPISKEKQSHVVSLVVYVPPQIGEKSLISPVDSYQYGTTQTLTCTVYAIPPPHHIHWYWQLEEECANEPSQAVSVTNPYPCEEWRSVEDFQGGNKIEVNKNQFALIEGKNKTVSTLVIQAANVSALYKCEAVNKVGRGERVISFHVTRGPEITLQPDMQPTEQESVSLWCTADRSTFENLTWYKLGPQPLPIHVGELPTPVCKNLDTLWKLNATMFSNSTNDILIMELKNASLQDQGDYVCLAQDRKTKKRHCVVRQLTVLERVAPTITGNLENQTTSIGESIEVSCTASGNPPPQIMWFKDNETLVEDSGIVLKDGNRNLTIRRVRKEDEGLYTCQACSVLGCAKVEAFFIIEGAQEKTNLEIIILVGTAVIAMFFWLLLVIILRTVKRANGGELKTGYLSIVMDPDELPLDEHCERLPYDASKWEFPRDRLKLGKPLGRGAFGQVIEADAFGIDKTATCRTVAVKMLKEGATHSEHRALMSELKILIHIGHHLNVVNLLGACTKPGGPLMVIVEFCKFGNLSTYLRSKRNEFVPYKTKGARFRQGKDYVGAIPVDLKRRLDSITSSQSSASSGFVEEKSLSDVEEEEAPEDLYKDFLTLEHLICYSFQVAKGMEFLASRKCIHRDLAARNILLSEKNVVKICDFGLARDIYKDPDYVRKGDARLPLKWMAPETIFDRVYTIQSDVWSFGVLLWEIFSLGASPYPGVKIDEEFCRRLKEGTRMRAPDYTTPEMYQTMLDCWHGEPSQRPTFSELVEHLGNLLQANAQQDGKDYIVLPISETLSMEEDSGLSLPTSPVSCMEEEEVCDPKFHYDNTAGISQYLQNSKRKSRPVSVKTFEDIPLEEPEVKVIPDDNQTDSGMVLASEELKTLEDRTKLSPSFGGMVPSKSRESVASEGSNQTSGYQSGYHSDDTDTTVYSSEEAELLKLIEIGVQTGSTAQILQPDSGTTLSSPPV
Vascular endothelial growth factor receptor 1 (Homo sapiens), sequence (P17948 whole entry): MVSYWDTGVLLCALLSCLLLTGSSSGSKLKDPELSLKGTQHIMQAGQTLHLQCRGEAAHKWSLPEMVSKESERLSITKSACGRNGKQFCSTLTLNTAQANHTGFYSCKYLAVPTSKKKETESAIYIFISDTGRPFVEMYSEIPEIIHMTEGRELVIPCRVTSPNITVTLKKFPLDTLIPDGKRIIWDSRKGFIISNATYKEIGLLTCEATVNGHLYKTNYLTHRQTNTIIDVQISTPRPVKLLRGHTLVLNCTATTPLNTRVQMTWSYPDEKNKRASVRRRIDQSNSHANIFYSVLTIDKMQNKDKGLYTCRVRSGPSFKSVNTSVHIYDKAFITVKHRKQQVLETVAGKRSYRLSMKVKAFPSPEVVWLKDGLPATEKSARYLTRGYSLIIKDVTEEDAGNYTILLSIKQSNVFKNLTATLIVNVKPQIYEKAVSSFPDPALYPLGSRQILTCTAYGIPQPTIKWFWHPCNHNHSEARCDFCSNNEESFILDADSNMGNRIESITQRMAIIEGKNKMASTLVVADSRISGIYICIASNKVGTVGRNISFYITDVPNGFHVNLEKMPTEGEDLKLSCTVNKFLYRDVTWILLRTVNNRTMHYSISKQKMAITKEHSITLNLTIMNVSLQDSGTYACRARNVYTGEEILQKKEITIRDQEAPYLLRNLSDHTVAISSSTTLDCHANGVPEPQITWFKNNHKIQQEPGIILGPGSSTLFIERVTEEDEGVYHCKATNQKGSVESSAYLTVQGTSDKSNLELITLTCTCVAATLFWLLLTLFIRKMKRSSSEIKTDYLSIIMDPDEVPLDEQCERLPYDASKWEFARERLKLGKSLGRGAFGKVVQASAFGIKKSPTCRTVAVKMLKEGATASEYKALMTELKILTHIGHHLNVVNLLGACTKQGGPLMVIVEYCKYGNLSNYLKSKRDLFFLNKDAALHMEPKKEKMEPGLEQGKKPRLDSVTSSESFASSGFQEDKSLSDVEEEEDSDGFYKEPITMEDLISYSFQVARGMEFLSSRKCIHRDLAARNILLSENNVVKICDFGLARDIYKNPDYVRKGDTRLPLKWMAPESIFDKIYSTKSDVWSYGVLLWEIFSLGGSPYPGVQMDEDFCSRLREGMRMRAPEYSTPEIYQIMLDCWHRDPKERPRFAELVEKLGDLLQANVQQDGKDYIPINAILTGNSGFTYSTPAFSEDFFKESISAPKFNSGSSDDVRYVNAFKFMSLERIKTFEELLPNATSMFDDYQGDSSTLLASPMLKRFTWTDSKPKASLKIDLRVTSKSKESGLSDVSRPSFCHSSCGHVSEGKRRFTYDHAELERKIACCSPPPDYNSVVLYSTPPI
Phosphatidylinositol 4,5-bisphosphate 3-kinase catalytic subunit alpha isoform (Homo sapiens), sequence (P42336 whole entry, canonical isoform): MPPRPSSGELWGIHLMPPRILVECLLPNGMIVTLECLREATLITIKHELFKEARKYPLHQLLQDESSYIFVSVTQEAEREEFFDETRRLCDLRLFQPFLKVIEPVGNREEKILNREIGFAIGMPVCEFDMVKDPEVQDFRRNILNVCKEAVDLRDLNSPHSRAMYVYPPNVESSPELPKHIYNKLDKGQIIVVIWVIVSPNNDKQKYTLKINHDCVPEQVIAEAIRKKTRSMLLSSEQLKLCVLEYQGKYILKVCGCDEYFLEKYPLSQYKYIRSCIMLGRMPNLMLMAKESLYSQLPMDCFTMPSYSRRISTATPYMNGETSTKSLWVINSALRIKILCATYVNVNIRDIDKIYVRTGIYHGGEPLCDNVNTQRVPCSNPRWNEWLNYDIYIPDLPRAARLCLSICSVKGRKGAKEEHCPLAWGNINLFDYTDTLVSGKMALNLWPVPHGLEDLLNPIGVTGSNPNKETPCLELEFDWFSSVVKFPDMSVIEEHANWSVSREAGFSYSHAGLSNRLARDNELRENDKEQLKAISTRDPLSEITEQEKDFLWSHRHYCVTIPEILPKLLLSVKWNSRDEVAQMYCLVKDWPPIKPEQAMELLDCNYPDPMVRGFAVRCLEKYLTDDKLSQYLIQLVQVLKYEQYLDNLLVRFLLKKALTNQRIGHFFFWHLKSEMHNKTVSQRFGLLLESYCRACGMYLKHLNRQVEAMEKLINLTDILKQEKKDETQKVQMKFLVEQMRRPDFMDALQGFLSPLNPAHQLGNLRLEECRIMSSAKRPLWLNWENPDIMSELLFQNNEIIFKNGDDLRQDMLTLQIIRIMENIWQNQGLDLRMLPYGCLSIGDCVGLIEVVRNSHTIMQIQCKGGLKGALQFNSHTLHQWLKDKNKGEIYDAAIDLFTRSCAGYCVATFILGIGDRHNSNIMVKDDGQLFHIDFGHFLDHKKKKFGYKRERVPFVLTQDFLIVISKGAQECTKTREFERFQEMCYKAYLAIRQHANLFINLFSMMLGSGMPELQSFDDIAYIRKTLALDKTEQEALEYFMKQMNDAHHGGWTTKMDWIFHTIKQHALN

Regarding `Cc1ccc(-c2nc3cc(NC(=O)CN4CCCC4)ccc3[nH]2)cc1`, in assay [1], the IC50 is greater than 50 µM.
For `Cc1ccc(-c2nc3cc(NC(=O)CCCl)ccc3[nH]2)cc1`, the values for the inhibition in [2], in [3] and in assay [4] were 17%, 24.6% and 3.3%, respectively. For the same molecule, the inhibition result in assay [5] and in assay [6] was “inactive” in each case. The molecule also gave an IC50 in assay [1] greater than 50 µM.
As for `Cc1cnc(C(=O)Nc2ccc3[nH]c(-c4ccc(F)cc4)nc3c2)cn1`, the results for the inhibition in assay [7], in [8] and in assay [9] were 5.43%, 0.5% and 0.5%, respectively.
`Cc1ccc(-c2nc3cc(NC(=O)CN4CCOCC4)ccc3[nH]2)cc1`: in [1], the IC50 was greater than 50 µM.
For `COc1cc2c(c(OC)c1OC)-c1ccc(OC)c(=O)cc1[C@@H](NC(C)=O)CC2` [COLCHICINE], in [1], the IC50 is 0.05 µM.
`Cc1ccc(-c2nc3cc(NC(=O)CCN4CCN(C)CC4)ccc3[nH]2)cc1` yielded an IC50 in assay [1] greater than 50 µM.
Regarding `Cn1cccc1-c1nc2cc(NC(=O)CCl)ccc2[nH]1`, the inhibition in assay [2] is 18.7%; in assay [3] it was 17.8%; in [5], 16.5%; in [6] it was 3.7%. Besides, the inhibition entry in assay [4] was “inactive”. Also, the IC50 in assay [10] was 12.1 µM; in assay [1], 1.8 µM. Moreover, the Activity is reported as 22.8% in [11] and 18.7% in assay [12].
With `CCN1CCN(CC(=O)Nc2ccc3[nH]c(-c4cccn4C)nc3c2)CC1`, the half-maximal inhibitory concentration (IC50) in assay [1] was greater than 50 µM.
Take `Cn1cccc1-c1nc2cc(NC(=O)CCCl)ccc2[nH]1`: in [1], the half-maximal inhibitory concentration (IC50) was greater than 50 µM.
`CN[C@@H]1C[C@H]2O[C@@](C)([C@@H]1OC)n1c3ccccc3c3c4c(c5c6ccccc6n2c5c31)C(=O)NC4`: the inhibition in [2] came to 92.6%; in [4], 93.4%; in assay [6], 97%; in assay [7] it was 97.5%.
For `CCN1CCN(CC(=O)Nc2ccc3[nH]c(-c4ccc(C)cc4)nc3c2)CC1`, in assay [1], the IC50 was determined as 31.9 µM.
In assay [1], `Cc1ccc(-c2nc3cc(NC(=O)CN4CCCCC4)ccc3[nH]2)cc1` came in with an IC50 greater than 50 µM.
On to `O=C(CCCl)Nc1ccc2[nH]c(-c3ccc(Br)cc3)nc2c1`, for which the IC50 in assay [1] worked out at 11.3 µM.
For `O=C(Nc1ccc2[nH]c(-c3ccc(F)cc3)nc2c1)c1cnccn1`, the inhibition in assay [7] is 2.55%; in assay [8] it was 0.27%; in assay [9] it was 0.58%.
Molecule `CCN1CCN(CCC(=O)Nc2ccc3[nH]c(-c4ccc(C)cc4)nc3c2)CC1` showed a half-inhibitory concentration (IC50) in assay [1] of 14.6 µM.
For the molecule `Cc1ccc(-c2nc3cc(NC(=O)CCl)ccc3[nH]2)cc1`, the inhibition in assay [2] turned out to be 42.7%; in assay [3], 52.6%; in assay [4], 7.3%; in assay [5] it was 33.1%. Also, the inhibition result in assay [6] is “inactive”. The half-inhibitory concentration (IC50) in assay [10] was 1.93 µM; in assay [1], 2 µM. Besides, the Activity in [11] turned out to be 28.6%; in assay [12], 16.6%.
Take `CCN1CCN(CCC(=O)Nc2ccc3[nH]c(-c4cccn4C)nc3c2)CC1`: in assay [1], the IC50 was greater than 50 µM.
In assay [1], `Cc1ccc(-c2nc3cc(NC(=O)CCN4CCCCC4)ccc3[nH]2)cc1` registered an IC50 of 11.9 µM.
For the molecule `Cc1ccc(-c2nc3cc(NC(=O)CN4CCN(C)CC4)ccc3[nH]2)cc1`, the half-inhibitory concentration (IC50) in assay [1] is greater than 50 µM.
`CCN1CCN(CCC(=O)Nc2ccc3[nH]c(-c4ccc(Br)cc4)nc3c2)CC1` showed an IC50 in assay [1] of 27.4 µM.

A word on the IC50: it is the point on the concentration scale where inhibition reaches its midpoint. A high value points to weaker potency in that assay. As usually defined, the inhibition is how much of the control response was suppressed.
